Data: PMC6770006, “Novel Heat Shock Protein 90 Inhibitors Suppress P-Glycoprotein Activity and Overcome Multidrug Resistance in Cancer Cells” (International Journal of Molecular Sciences, 2019)
“Also recorded” adds a separate entry of the source.

How the values were obtained:
DLD1-TxR cells = assay: MTT assay, cell growth inhibition, DLD1-TxR (MDR); type: cell-based, human; conditions: 72 h; for IC50: Homo sapiens, MDR cells
Description: A series of 3-aryl-naphtho[2,3-d]isoxazole-4,9-diones were synthesized (Scheme 1, Figure 1) and their growth inhibition activity was tested in vitro on human non-small cell lung carcinoma NCI-H460, colorectal carcinoma DLD1 and their corresponding MDR cells (NCI-H460/R and DLD1-TxR, respectively), as well as normal embryonic lung fibroblasts MRC-5. The differences in cell growth inhibition between cancer and normal cells obtained by the MTT assay after 72 h treatment are presented in Table 1. The effect of compounds is presented as IC50 values that correspond to the 50% of cell growth inhibition.
Human colorectal carcinoma (DLD1), non-small cell lung carcinoma (NCI-H460), and normal embryonic lung fibroblast (MRC-5) cell lines were purchased from the American Type Culture Collection, Rockville, MD. P-gp overexpressing multidrug resistant DLD1-TxR cells were selected by continuous exposure to stepwise increasing concentrations of paclitaxel from DLD1 cells, while NCI-H460/R cells were selected from NCI-H460 cells after DOX selective pressure. MDR cancer cell lines, DLD1-TxR and NCI-H460/R, and their sensitive counterparts were maintained in RPMI 1640 medium supplemented with 10% FBS, 2 mM L-glutamine, and 10,000 U/mL penicillin, 10 mg/mL streptomycin, 25 mg/mL amphotericin B solutions. MRC-5 cells were cultured in DMEM supplemented with 10% FBS, 4 g/L glucose, 2 mM L-glutamine and 5000 U/mL penicillin, 5 mg/mL streptomycin solution. All cell lines were sub-cultured at 72 h intervals using 0.25% trypsin/EDTA and seeded into a fresh medium at 8000 cells/cm^2. All cell lines were maintained at 37 °C in a humidified 5% CO2 atmosphere.
Cell viability was assessed by the MTT assay (AppliChem GmbH, Darmstadt, Germany). Cells grown in 25 cm^2 tissue flasks were trypsinized and 1000 cells/well were seeded into flat-bottomed 96-well tissue culture plates and incubated overnight. Subsequently, the cells were treated with increasing concentrations of Hsp90 inhibitors for 72 h: compound 3 (0.1–2.5 µM), compound 4 (0.25–5 µM), compound 5 (0.5–25 µM), compound 6 (50–1000 nM), compound 7 (10–250 nM), compound 8 (0.25–5 µM), compound 9 (10–250 nM), compound 10 (0.5–25 µM), compound 13 (0.5–10 µM), compound 14 (1–25 µM), and compound 15 (10–250 nM). […] After treatment, MTT was added to each well in a final concentration of 0.2 mg/mL for 4 h. Formazan product was dissolved in 200 µl of DMSO, and the absorbance was measured at 540 nm using an automatic LKB 5060-006 Micro Plate Reader (Vienna, Austria). IC50 value was defined as a concentration of the drug that inhibited cell growth by 50% and was calculated by nonlinear regression analysis using GraphPad Prism 6.0 for Windows (La Jolla, CA, USA). Relative selectivity towards cancer cells was calculated as a relation between IC50 value obtained in MRC-5 cells and an average IC50 value from four tested cancer cell lines.

P-gp expression = assay: Flow cytometric analysis of P-gp expression; type: cell-based, human; conditions: 72 h; for Change in P-gp expression, DLD1 / Change in P-gp expression, NCI-H460: 5 µM 5, 200 nM 7, 100 nM 9, 10 nM TQ, 50 nM DOX, 50 nM PTX
Description: P-glycoprotein expression level in NCI-H460, NCI-H460/R, DLD1, and DLD1-TxR and cells was measured by flow cytometry. All cell lines were seeded in adherent 6-well plates and treated with Hsp90 inhibitors for 72 h at the following concentrations: 5 µM compound 5, 200 nM compound 7, 100 nM compound 9 (NCI-H460 and DLD1), and 10 µM compound 5, 500 nM compound 7, 500 nM compound 9 (NCI-H460/R and DLD1-TxR). Cells were also treated with 10 nM TQ, a non-competitive P-gp inhibitor, which served as a positive control. In addition, sensitive cells (NCI-H460 and DLD1) were treated with 50 nM DOX and 50 nM PTX that served as positive controls for the induction of P-gp expression. Then, cells were collected by trypsinization, washed with PBS, and directly immunostained by FITC-conjugated anti-P-gp antibody according to the manufacturer’s protocol. The samples were kept in the dark until the analysis on CyFlow Space Partec flow cytometer (Sysmex Partec GmbH, Görlitz, Germany). The fluorescence of FITC-conjugated anti-P-gp was detected on fluorescence channel 1 (FL1-H) at 530 nm. A minimum of 10,000 events were collected for each sample (the gate excluded cell debris and dead cells) and the obtained results were analyzed with Summit software v4.3 (Dako Colorado Inc., Fort Collins, CO, USA).

Hsp90 = tested on: Hsp90; design: method as in PMID 22538015; conditions: read-out: Hsp90 Affinity binding; cited from earlier work
P-gp = P-gp (Homo sapiens, UniProt P08183); assay: Rhodamine 123 accumulation assay (P-gp activity, flow cytometry); type: cell-based; design: P-gp overexpressing multidrug resistant DLD1-TxR cells were selected by continuous exposure to stepwise increasing concentrations of paclitaxel from DLD1 cells; endogenous in cells; host or cells: NCI-H460/R and DLD1-TxR (drug-selected MDR human cancer cells); conditions: MDR NCI-H460/R and DLD1-TxR cells, 30 min, one concentration per compound (100 nM-10 µM), Figure 3a
Sequence of P-gp (P08183 whole entry): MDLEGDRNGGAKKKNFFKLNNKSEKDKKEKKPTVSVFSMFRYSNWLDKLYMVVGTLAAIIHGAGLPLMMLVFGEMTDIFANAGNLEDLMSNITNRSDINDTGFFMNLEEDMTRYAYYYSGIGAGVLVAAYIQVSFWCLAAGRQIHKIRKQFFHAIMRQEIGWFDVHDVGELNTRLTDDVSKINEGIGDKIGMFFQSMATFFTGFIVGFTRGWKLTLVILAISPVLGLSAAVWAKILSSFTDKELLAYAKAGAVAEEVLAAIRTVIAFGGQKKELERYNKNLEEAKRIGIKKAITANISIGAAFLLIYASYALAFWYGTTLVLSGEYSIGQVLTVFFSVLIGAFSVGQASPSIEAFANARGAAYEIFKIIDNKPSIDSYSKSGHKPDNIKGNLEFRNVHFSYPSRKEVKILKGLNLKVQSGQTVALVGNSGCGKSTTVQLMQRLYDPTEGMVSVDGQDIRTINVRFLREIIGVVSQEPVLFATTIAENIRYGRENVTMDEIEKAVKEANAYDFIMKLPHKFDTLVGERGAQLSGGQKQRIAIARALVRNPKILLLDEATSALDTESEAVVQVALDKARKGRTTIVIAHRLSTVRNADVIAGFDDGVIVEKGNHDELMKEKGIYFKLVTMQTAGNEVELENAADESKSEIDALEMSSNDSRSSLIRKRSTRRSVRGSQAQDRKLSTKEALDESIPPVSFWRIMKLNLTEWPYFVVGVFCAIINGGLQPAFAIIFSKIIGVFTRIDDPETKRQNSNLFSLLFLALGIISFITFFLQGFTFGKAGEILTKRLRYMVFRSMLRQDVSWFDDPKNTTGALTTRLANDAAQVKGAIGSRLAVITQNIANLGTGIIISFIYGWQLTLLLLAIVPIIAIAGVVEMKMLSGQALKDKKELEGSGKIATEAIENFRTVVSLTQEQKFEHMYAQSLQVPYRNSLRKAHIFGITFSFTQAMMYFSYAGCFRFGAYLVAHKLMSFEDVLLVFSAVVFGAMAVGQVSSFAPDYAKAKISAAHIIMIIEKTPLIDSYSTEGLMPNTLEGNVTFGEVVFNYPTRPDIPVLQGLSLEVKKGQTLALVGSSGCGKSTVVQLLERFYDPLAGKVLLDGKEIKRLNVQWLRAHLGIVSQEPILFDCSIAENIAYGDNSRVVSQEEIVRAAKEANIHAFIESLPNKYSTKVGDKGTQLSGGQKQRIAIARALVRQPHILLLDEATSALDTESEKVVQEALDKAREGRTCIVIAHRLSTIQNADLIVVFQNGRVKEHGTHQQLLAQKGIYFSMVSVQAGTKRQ
Description: To study the effect of Hsp90 inhibitors on P-gp activity in MDR cancer cells, intracellular accumulation of the P-gp substrate rhodamine 123 (Rho 123) was analyzed by flow cytometry after 30 min treatment (Figure 3a). A well-known inhibitor of P-gp activity, tariquidar (TQ), was included as a positive control.
The accumulation of Rho 123, a fluorescent P-gp substrate, was measured by flow cytometry. The intensity of the fluorescence is proportional to Rho 123 accumulation in the cell. All cell lines were seeded in adherent 6-well plates and grown overnight. DLD1-TxR and NCI-H460/R cells were treated for 30 min with the following concentrations of Hsp90 inhibitors: 500 nM compound 3, 1 µM compound 4, 10 µM compound 5, 500 nM compound 6, 500 nM compound 7, 1 µM compound 8, 500 nM compound 9, 1 µM compound 10, 1 µM compound 13, 10 µM compound 14, 100 nM compound 15. TQ (10 nM) was used as a positive control for Rho 123 accumulation. Rho 123 (5 μM) was simultaneously added with the investigated compounds and the cells were incubated at 37 °C in 5% CO2 for 30 min. The cells were then trypsinized, pelleted by centrifugation, washed with PBS and placed in ice-cold PBS. The samples were kept on ice in the dark until the analysis on CyFlow Space Partec flow cytometer (Sysmex Partec GmbH, Görlitz, Germany). The fluorescence of Rho 123 was detected on fluorescence channel 1 (FL1-H) at 530 nm. A minimum of 10,000 events were collected for each sample and the obtained results were analyzed using Summit software.

IC50 (DLD1-TxR cells) | Structure (SMILES) | Change in P-gp expression, DLD1 (P-gp expression) | Change in P-gp expression, NCI-H460 (P-gp expression) | IC50 (Hsp90) | P-gp activity / Rho 123 accumulation (P-gp) | Efficacy in MDR DLD1-TxR cells compared with sensitive DLD1 (DLD1-TxR cells) | Change in P-gp expression, NCI-H460/R (P-gp expression; 10 µM 5, 500 nM 7, 500 nM 9, 10 nM TQ)
50 ± 1 nM | O=C1c2ccccc2C(=O)c2c(-c3cccnc3)noc21 [Compound 9] | did not change P-gp expression | did not change P-gp expression | 540 nM | most prominent effect in both MDR cell lines | – | –
11100 ± 304 nM | O=C1c2ccccc2C(=O)c2c(-c3ccccc3O)noc21 [Compound 5] | did not change P-gp expression | did not change P-gp expression | 1550 nM | significant beneficial effect on P-gp inhibition; also recorded: most prominent effect in both MDR cell lines | further compromised in the presence of MDR phenotype | significantly increased P-gp expression
138 ± 3 nM | O=C1c2ccccc2C(=O)c2c(-c3ccncc3)noc21 [Compound 7] | did not change P-gp expression | did not change P-gp expression | 390 nM | most prominent effect in both MDR cell lines | evaded resistance in both MDR cancer cell lines | –
